Measured values taken from PMC10461823, “ABCH2 transporter mediates deltamethrin uptake and toxicity in the malaria vector Anopheles coluzzii” (PLOS Pathogens, 2023).
Values belong to the compound of their own block, whether it stands above or below them.

What was measured:
[1] = molecular target: T1, ABCH2 (Anopheles coluzzii, UniProt A0A6E8VHH0); assay: malachite green ATPase assay, Sf9 inverted membrane vesicles; type: biochemical; settings: basal activity without deltamethrin, 1 mM ATP, MgCl2, Tris pH 8, 37 C, 15 min; empty-bacmid background subtracted
T1 construct: full ORF, codon-optimised for S. frugiperda, pFastBac1 baculovirus in Sf9 cells, untagged, membrane vesicles; about 85 kDa half-transporter, proposed homodimer
T1 sequence (A0A6E8VHH0 1-760): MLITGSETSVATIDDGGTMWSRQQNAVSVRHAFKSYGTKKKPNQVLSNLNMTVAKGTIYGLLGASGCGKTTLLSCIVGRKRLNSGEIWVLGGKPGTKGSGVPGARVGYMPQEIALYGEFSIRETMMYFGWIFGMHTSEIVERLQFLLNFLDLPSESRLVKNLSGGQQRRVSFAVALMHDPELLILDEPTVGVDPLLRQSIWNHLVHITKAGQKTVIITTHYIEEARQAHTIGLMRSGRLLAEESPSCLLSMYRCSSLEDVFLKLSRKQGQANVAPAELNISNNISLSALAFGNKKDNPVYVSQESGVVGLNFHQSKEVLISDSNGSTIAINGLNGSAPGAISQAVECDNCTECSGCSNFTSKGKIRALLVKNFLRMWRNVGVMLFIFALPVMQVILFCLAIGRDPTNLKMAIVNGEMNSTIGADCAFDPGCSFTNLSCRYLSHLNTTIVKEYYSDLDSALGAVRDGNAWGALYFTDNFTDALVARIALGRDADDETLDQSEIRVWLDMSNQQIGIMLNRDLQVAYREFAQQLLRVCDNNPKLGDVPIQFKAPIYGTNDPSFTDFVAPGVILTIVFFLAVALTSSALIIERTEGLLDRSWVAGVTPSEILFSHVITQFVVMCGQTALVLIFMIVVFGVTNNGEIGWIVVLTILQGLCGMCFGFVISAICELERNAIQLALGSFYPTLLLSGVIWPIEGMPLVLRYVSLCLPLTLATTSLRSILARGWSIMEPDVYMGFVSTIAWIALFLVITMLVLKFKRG

[2] = molecular target: T1, ABCH2; assay: as above; type: biochemical; settings: 120 uM deltamethrin, DMSO/ethanol, 1 mM ATP, MgCl2, Tris pH 8, 37 C, 15 min; empty-bacmid background subtracted; transport not shown directly
[3] = molecular target: ABCH2 transporter (ATP-Binding Cassette transporter from the H family) of Anopheles coluzzii (Anopheles coluzzii)

Compound: Nc1ncnc2c1ncn2[C@@H]1O[C@H](COP(=O)(O)OP(=O)(O)OP(=O)(O)O)[C@@H](O)[C@H]1O [ATP]
malachite green ATPase assay, Sf9 inverted membrane vesicles [1]: indicate an ATP hydrolysis specific to ABCH2 expression

Compound: CC1(C)[C@H](C(=O)O[C@H](C#N)c2cccc(Oc3ccccc3)c2)[C@@H]1C=C(Br)Br [deltamethrin]
fold stimulation of basal ATPase activity at 120 uM [2]: ~ 1.6 fold

estimated basal rate of ATP hydrolysis of ABCH2 in inverted membrane vesicles of Sf9 cells expressing ABCH2 on its own (pmoles Pi/pmol ABCH2/minute) [3]: 178
Compound: ABCH2 transporter (ATP-Binding Cassette transporter from the H family) of Anopheles coluzzii (natural protein)
